15 compounds from patent US20240238424A1, “HETEROBIFUNCTIONAL COMPOUNDS AND METHODS OF TREATING DISEASE” (Halda Therapeutics OpCo, Inc., priority 2021, published 2024) can be followed below.

One may read the DC50 as the concentration giving 50% degradation. Read a high DC50 as a less potent degrader. A word on the GI50: it is the concentration that inhibits growth by half.

One test has as its target T1, GSPT1 (Homo sapiens, UniProt P15170+Q96SW2).
T1 construct: host or cells: HEK293 LgBiT cell line
As to the kind of experiment: GSPT1 HiBit degradation assay. Particulars: Table 3; HEK293 LgBiT cells expressing GSPT1_HiBiT, luminescence after 6 hours. The test is classed as cell-based. A digest of the protocol:
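Degradation readout is luminescence at 6 h, with DC50 taken as the concentration giving 50% GSPT1 loss. Compound titrations were added together with endurazine (0.5× final) to HEK293 LgBiT/GSPT1-HiBiT cells seeded the day before and kept at 37 °C.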
A general note: The HiBiT peptide binds its large partner to form an active luciferase.

Another test relates to HeLa KRas G12C cells. The test is described as follows: Cellular growth inhibition assay (CTG), HeLa KRas G12C cells. The test is classed as cell-based. Particulars: Homo sapiens, CellTiter-Glo 2.0, day-5. The procedure: Cells were seeded in Poly-D-lysine-treated 384-well white plates, with 25 μL cell suspension at 250 cells/well for continuous treatments, and 1000 cells/well for washout treatments. Plates were spun at 300×g for 3 minutes, and cells were cultured at 37° C. with 5% CO2 in a humidified tissue culture incubator.
After 24 hours, the test compounds were diluted with cell culture medium in 96 deep well plates. DMSO was used as a negative control. A 25 μL aliquot of compound-containing medium was added in each well, at a final top concentration of 10 μM or 30 μM test compound, with 3-fold dilutions. For washout assays, after 4 hours, cell medium with compound was removed, and the cells were washed with 75p L fresh medium. Plates were then spun at 300×g for 3 minutes and replaced with 50 μL fresh medium in each well. Plates were then spun at 300×g for 3 minutes again and cultured at 37° C. with 5% CO2.
At day-0 and day-5 of compound treatments, cell viability was quantified with CellTiter-Glo 2.0 (Promega). After equilibrating cell plates at room temperature for 30 minutes, 25 μL CellTiter-Glo 2.0 reagent was dispensed into each well (on top of 50 μL of cell culture). Plates were mixed on a shaker for 2 minutes at 500 rpm, followed by a 10-minute incubation at room temperature. Luminescence readings were measured with an EnVision Plate Reader. Data was normalized to DMSO treated day-0 cell wells. A four-parameter non-linear regression curve fit was applied to dose-response data in Prism to determine the half maximal growth inhibitory concentration (GI50) of each compound.
On the technique in general: ATP-based viability assays read luminescence as a measure of living cells.

Where only a bound is given, the exact number is not on record here.

T1 sequence (P15170 whole entry): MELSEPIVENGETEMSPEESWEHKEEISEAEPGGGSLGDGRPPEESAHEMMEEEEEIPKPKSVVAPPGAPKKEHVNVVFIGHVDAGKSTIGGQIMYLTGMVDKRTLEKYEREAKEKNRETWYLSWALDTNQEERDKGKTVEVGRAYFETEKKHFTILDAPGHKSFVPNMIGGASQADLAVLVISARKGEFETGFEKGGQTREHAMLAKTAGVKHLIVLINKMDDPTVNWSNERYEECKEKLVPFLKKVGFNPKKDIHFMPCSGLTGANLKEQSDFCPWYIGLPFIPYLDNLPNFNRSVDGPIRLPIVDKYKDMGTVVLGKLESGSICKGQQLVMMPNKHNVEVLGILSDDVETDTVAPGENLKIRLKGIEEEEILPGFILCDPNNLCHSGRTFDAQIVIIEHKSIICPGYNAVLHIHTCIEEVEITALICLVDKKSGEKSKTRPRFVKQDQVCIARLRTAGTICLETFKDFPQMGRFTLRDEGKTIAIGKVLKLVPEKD
T1 sequence (Q96SW2 whole entry): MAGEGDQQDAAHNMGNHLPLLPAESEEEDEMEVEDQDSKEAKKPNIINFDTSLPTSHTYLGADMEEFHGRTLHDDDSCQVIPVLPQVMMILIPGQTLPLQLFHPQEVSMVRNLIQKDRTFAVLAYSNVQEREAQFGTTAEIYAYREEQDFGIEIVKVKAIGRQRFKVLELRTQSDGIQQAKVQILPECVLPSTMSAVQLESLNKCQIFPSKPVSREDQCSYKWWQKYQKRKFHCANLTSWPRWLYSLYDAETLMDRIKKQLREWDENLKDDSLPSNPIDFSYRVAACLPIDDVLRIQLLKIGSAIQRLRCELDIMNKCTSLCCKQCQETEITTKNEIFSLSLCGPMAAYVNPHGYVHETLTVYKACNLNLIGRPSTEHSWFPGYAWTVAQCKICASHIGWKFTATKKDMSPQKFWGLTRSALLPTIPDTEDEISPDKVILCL
T1 sequence (Q16531 whole entry partner): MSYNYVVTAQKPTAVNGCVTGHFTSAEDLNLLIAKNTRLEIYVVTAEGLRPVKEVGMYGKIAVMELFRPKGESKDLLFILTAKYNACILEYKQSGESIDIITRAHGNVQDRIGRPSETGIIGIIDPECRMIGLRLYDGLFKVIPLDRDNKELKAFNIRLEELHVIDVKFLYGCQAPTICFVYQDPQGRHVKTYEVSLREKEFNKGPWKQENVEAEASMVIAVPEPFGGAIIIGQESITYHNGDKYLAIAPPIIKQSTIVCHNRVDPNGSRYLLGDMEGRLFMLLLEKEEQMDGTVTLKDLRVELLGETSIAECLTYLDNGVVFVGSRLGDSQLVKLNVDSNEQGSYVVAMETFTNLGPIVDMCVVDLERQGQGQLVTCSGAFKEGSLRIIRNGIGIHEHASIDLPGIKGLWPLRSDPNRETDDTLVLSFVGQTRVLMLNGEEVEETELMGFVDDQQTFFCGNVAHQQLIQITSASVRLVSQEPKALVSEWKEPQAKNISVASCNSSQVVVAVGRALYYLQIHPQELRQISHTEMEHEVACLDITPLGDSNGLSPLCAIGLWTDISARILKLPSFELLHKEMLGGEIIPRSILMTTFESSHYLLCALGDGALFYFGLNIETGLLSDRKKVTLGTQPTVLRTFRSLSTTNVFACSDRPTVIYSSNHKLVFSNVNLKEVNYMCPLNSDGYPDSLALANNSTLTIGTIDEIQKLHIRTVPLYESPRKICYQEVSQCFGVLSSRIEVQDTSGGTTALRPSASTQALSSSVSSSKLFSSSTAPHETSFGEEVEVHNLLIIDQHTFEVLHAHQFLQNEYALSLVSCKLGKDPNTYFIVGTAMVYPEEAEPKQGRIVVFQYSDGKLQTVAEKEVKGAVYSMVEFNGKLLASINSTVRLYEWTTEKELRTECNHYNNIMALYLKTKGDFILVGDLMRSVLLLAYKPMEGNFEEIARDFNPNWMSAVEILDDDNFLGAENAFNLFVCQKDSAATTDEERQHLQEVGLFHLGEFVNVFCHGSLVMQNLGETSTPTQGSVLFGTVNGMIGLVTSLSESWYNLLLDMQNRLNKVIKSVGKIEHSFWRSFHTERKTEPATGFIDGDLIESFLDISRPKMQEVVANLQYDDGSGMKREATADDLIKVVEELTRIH

In turn, `C=CC(=O)N1CCN(c2nc(NCCOCCOCCOCCOCCOCCOCCOCCOCCOc3cc(Cl)cc(NC(=O)NCc4ccc5c(c4)CN(C4CCC(=O)NC4=O)C5=O)c3)nc3c(F)c(-c4cc(O)cc5ccccc45)c(Cl)cc23)CC1` (stereo not drawn) [Compound I-13, 1-[3-chloro-5-[2-[2-[2-[2-[2-[2-[2-[2-[2-[[6-chloro-8-fluoro-7-(3-hydroxy-1-naphthyl)-4-(4-prop-2-enoylpiperazin-1-yl)quinazolin-2-yl]amino]ethoxy]ethoxy]ethoxy]ethoxy]ethoxy]ethoxy]ethoxy]ethoxy]ethoxy]phenyl]-3-[[2-(2,6-dioxo-3-piperidyl)-1-oxo-isoindolin-5-yl]methyl]urea] displayed a DC50 on GSPT1 greater than 10 µM. For the same compound, in the test with HeLa KRas G12C cells, the concentration for 50% growth inhibition (GI50) is greater than 10 µM.
`C=CC(=O)N1CCN(c2nc(NCCOCCOCCOCCOCCOCCOCCOCCOCCOCCOCCOc3cc(Cl)cc(NC(=O)NCc4ccc5c(c4)CN(C4CCC(=O)NC4=O)C5=O)c3)nc3c(F)c(-c4cc(O)cc5ccccc45)c(Cl)cc23)CC1` (stereo not drawn) [Compound I-14, 1-[3-chloro-5-[2-[2-[2-[2-[2-[2-[2-[2-[2-[2-[2-[[6-chloro-8-fluoro-7-(3-hydroxy-1-naphthyl)-4-(4-prop-2-enoylpiperazin-1-yl)quinazolin-2-yl]amino]ethoxy]ethoxy]ethoxy]ethoxy]ethoxy]ethoxy]ethoxy]ethoxy]ethoxy]ethoxy]ethoxy]phenyl]-3-[[2-(2,6-dioxo-3-piperidyl)-1-oxo-isoindolin-5-yl]methyl]urea] returned a DC50 at GSPT1 greater than 10 µM. The same compound gave a GI50 in the test with HeLa KRas G12C cells greater than 10 µM.
The compound `C=CC(=O)N1CCN(c2nc(NCCOCCOCCOCCOCCOCCOCCOCCOCCc3cc(Cl)cc(NC(=O)NCc4ccc5c(c4)CN(C4CCC(=O)NC4=O)C5=O)c3)nc3c(F)c(-c4cc(O)cc5ccccc45)c(Cl)cc23)CC1` (stereo not drawn) [Compound I-15, 1-[3-chloro-5-[2-[2-[2-[2-[2-[2-[2-[2-[2-[[6-chloro-8-fluoro-7-(3-hydroxy-1-naphthyl)-4-(4-prop-2-enoylpiperazin-1-yl)quinazolin-2-yl]amino]ethoxy]ethoxy]ethoxy]ethoxy]ethoxy]ethoxy]ethoxy]ethoxy]ethyl]phenyl]-3-[[2-(2,6-dioxo-3-piperidyl)-1-oxo-isoindolin-5-yl]methyl]urea] had a DC50 at GSPT1 greater than 10 µM. Further, the GI50 in the test on HeLa KRas G12C cells was greater than 10 µM.
In the case of `C=CC(=O)N1CCN(c2nc(NCCOCCOCCOCCOCCOCCOCCOCCOCCOCCOCCc3cc(Cl)cc(NC(=O)NCc4ccc5c(c4)CN(C4CCC(=O)NC4=O)C5=O)c3)nc3c(F)c(-c4cc(O)cc5ccccc45)c(Cl)cc23)CC1` (stereo not drawn) [Compound I-16, 1-[3-chloro-5-[2-[2-[2-[2-[2-[2-[2-[2-[2-[2-[2-[[6-chloro-8-fluoro-7-(3-hydroxy-1-naphthyl)-4-(4-prop-2-enoylpiperazin-1-yl)quinazolin-2-yl]amino]ethoxy]ethoxy]ethoxy]ethoxy]ethoxy]ethoxy]ethoxy]ethoxy]ethoxy]ethoxy]ethyl]phenyl]-3-[[2-(2,6-dioxo-3-piperidyl)-1-oxo-isoindolin-5-yl]methyl]urea], the DC50 at GSPT1 was greater than 10 µM. The compound further showed a GI50 with HeLa KRas G12C cells greater than 10 µM.
Take `C=CC(=O)N1CCN(c2nc(NCCC(=O)N(C)CCOCCOCCOCCOCCOCCOCCc3cc(Cl)cc(NC(=O)NCc4ccc5c(c4)CN(C4CCC(=O)NC4=O)C5=O)c3)nc3c(F)c(-c4cc(O)cc5ccccc45)c(Cl)cc23)CC1` (stereo not drawn) [Compound I-17]: the DC50 at GSPT1 was greater than 10 µM. Moreover, the GI50 in the test on HeLa KRas G12C cells is greater than 10 µM.
Turning to `C=CC(=O)N1CCN(c2nc(NCCC(=O)N(C)CCOCCOCCOCCOCCOCCOCCOCCOCCc3cc(Cl)cc(NC(=O)NCc4ccc5c(c4)CN(C4CCC(=O)NC4=O)C5=O)c3)nc3c(F)c(-c4cc(O)cc5ccccc45)c(Cl)cc23)CC1` (stereo not drawn) [Compound I-18, N-[2-[2-[2-[2-[2-[2-[2-[2-[2-[3-chloro-5-[[2-(2,6-dioxo-3-piperidyl)-1-oxo-isoindolin-5-yl]methylcarbamoylamino]phenyl]ethoxy]ethoxy]ethoxy]ethoxy]ethoxy]ethoxy]ethoxy]ethoxy]ethyl]-3-[[6-chloro-8-fluoro-7-(3-hydroxy-1-naphthyl)-4-(4-prop-2-enoylpiperazin-1-yl)quinazolin-2-yl]amino]-N-methyl-propanamide], the DC50 on GSPT1 was greater than 10 µM. Further, the GI50 in the test with HeLa KRas G12C cells was greater than 10 µM.
Turning to `C=C(F)C(=O)N1CCN(c2nc(OC[C@@H]3CCCN3CCOCCOCCOCCOCCOCCOCCOCCOCCOCCOCCOCCOCCc3cc(Cl)cc(NC(=O)NCc4ccc5c(c4)CN(C4CCC(=O)NC4=O)C5=O)c3)nc3c2CCN(c2cccc4cccc(Cl)c24)C3)C[C@@H]1CC#N` (stereo partly drawn) [Compound I-37], the DC50 on GSPT1 was 0.25 to 5 µM. The GI50 with HeLa KRas G12C cells was greater than 10 µM.
In the same order, the values of `C=C(F)C(=O)N1CCN(c2nc(OC[C@@H]3CCCN3CCOCCOCCOCCOCCOCCOCCOCCOCCCCCCCCc3cc(Cl)cc(NC(=O)NCc4ccc5c(c4)CN(C4CCC(=O)NC4=O)C5=O)c3)nc3c2CCN(c2cccc4cccc(Cl)c24)C3)C[C@@H]1CC#N` (stereo partly drawn) [Compound I-38] are less than 0.25 µM and less than 1 µM.
In turn, `C=C(F)C(=O)N1CCN(c2nc(OC[C@H]3CCCN3CCOCCOCCOCCOCCOCCOCCOCCOCCOCCOCCCCCCCCc3cc(Cl)cc(NC(=O)NCc4ccc5c(c4)CN(C4CCC(=O)NC4=O)C5=O)c3)nc3c2CCN(c2cccc4cccc(Cl)c24)C3)C[C@H]1CC#N` (stereo partly drawn) [Compound I-39] had a DC50 at GSPT1 of less than 0.25 µM. In the test with HeLa KRas G12C cells, this compound yielded a concentration for 50% growth inhibition (GI50) of less than 1 µM.
Take `C=C(F)C(=O)N1CCN(c2nc(OC[C@@H]3CCCN3CCOCCOCCOCCOCCCCCCCCc3cc(Cl)cc(NC(=O)NCc4ccc5c(c4)CN(C4CCC(=O)NC4=O)C5=O)c3)nc3c2CCN(c2cccc4cccc(Cl)c24)C3)C[C@@H]1CC#N` (stereo partly drawn) [Compound I-40]: on GSPT1, the DC50 was less than 0.25 µM. Also, in the test on HeLa KRas G12C cells, the GI50 was less than 1 µM.
`C=C(F)C(=O)N1CCN(c2nc(OC[C@@H]3CCCN3CCOCCOCCOCCOCCOCCOCCCCCCCCc3cc(Cl)cc(NC(=O)NCc4ccc5c(c4)CN(C4CCC(=O)NC4=O)C5=O)c3)nc3c2CCN(c2cccc4cccc(Cl)c24)C3)C[C@@H]1CC#N` (stereo partly drawn) [Compound I-41] registered a 50% degradation concentration (DC50) at GSPT1 of less than 0.25 µM. For the same compound, the GI50 with HeLa KRas G12C cells is less than 1 µM.
Consider `C=C(F)C(=O)N1CCN(c2nc(OC[C@@H]3CCCN3CCOCCOCCOCCOCCOCCOCCOCCOCCOCCOCCOCCOCCOc3cc(Cl)cc(NC(=O)NCc4ccc5c(c4)CN(C4CCC(=O)NC4=O)C5=O)c3)nc3c2CCN(c2cccc4cccc(Cl)c24)C3)C[C@@H]1CC#N` (stereo partly drawn) [Compound I-42], for which the DC50 at GSPT1 is greater than 10 µM. This compound showed a GI50 in the test on HeLa KRas G12C cells greater than 10 µM.
On GSPT1, `C=C(F)C(=O)N1CCN(c2nc(OC[C@@H]3CCCN3CCOCCOCCOCCOCCOCCOCCOCCCCCc3cc(Cl)cc(NC(=O)NCc4ccc5c(c4)CN(C4CCC(=O)NC4=O)C5=O)c3)nc3c2CCN(c2cccc4cccc(Cl)c24)C3)C[C@@H]1CC#N` (stereo partly drawn) [Compound I-43] showed a DC50 of 0.25 to 5 µM. Moreover, in the test on HeLa KRas G12C cells, the 50% growth inhibitory concentration (GI50) fell in the range of 1 to 3 µM.
`C=C(F)C(=O)N1CCN(c2nc(OC[C@@H]3CCCN3CCOCCOCCOCCOCCOCCOCCOCCOCCOCCCCCc3cc(Cl)cc(NC(=O)NCc4ccc5c(c4)CN(C4CCC(=O)NC4=O)C5=O)c3)nc3c2CCN(c2cccc4cccc(Cl)c24)C3)C[C@@H]1CC#N` (stereo partly drawn) [Compound I-44]: the DC50 on GSPT1 was in the range of 0.25 to 5 µM. In addition, the GI50 in the test on HeLa KRas G12C cells lay within 1 to 3 µM.
At GSPT1, `C=C(F)C(=O)N1CCN(c2nc(OC[C@@H]3CCCN3CCOCCOCCOCCOCCOCCOCCOCCOCCOCCOCCOCCOCCCCCCCCc3cc(Cl)cc(NC(=O)NCc4ccc5c(c4)CN(C4CCC(=O)NC4=O)C5=O)c3)nc3c2CCN(c2cccc4cccc(Cl)c24)C3)C[C@@H]1CC#N` (stereo partly drawn) [Compound I-46] came in with a DC50 of less than 0.25 µM. In the test on HeLa KRas G12C cells, this compound yielded a GI50 of less than 1 µM.
